Test systems include HCC 2998; ACHN; HL-60; NCI-H23; HOP-62; COLO 205; UO-31; SW-620; LOX IMVI; SF-539; NCI-H522; NCI-H226; OVCAR-8; RPMI-8226; SK-MEL-2; MCF7; T47D; NCI/ADR-RES; MDA-MB-435.
Holding throughout (assay): NCI tumour cell line growth inhibition, 48 h

The structures appear in SMILES notation.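 Each compound was tested at five concentrations against cells in 96-well plates for 48 hours. GI50 = concentration required for 50% inhibition of growth.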 Active and inactive are the calls of the source. Cut-off read from the data, not from the text of the source: active = GI50 up to about 1.1 µM and inactive = higher.

As for `C[C@]12CCCC(=O)C1C[C@H](C(=O)O)CC2` (stereo partly drawn), the GI50 in the assay with HCC 2998, in the assay with ACHN, with HL-60, in the assay on NCI-H23, in the assay on HOP-62 and in the assay with COLO 205 was > 100 µM (inactive) throughout. For the same compound, the GI50 in the assay with UO-31, in the assay on SW-620, in the assay with LOX IMVI, with SF-539, in the assay with NCI-H522 and in the assay with NCI-H226 was > 100 µM (inactive) throughout. The GI50 with OVCAR-8, in the assay on RPMI-8226 and with SK-MEL-2 was > 100 µM (inactive) in each case.

`COC(=O)C(CC(=O)Nc1ccc(C)cc1)C(=O)C(=O)Nc1ccccc1C(C)C` (stereo not drawn): the GI50 with HCC 2998 is > 100 µM (inactive); in the assay on ACHN it was > 100 µM (inactive); in the assay on HL-60, > 100 µM (inactive); with NCI-H23 it was > 100 µM (inactive); in the assay with HOP-62, > 100 µM (inactive); in the assay with COLO 205 it was 89.7 µM (inactive). The GI50 was > 100 µM (inactive) in the assay on UO-31; 22.2 µM (inactive) with SW-620; > 100 µM (inactive) in the assay on LOX IMVI; > 100 µM (inactive) with SF-539; > 100 µM (inactive) in the assay with NCI-H522; > 100 µM (inactive) in the assay on NCI-H226. Moreover, the GI50 in the assay with OVCAR-8 was > 100 µM (inactive); in the assay with RPMI-8226, 62.4 µM (inactive); in the assay with SK-MEL-2, > 100 µM (inactive).

Regarding `N#C/C(c1nc2ccccc2[nH]1)=c1\s/c(=C/c2ccccc2)c(=O)n1-c1ccccc1`, the GI50 with HCC 2998, in the assay with ACHN, in the assay with HL-60, in the assay with NCI-H23, with HOP-62 and with COLO 205 was > 100 µM (inactive) in each case. Moreover, the GI50 in the assay with UO-31, with SW-620, with LOX IMVI, with SF-539, with NCI-H522 and in the assay with NCI-H226 was > 100 µM (inactive) each time. Moreover, the GI50 in the assay on OVCAR-8, with RPMI-8226 and in the assay on SK-MEL-2 was > 100 µM (inactive) each time.

For the compound `Clc1cc(Cc2cc(Cl)c(Cl)c3c2OCOC3)c2c(c1Cl)COCO2`, the GI50 with HCC 2998 is > 100 µM (inactive); in the assay with ACHN, 32.4 µM (inactive); in the assay on HL-60 it was 93.1 µM (inactive); in the assay on NCI-H23, > 100 µM (inactive); in the assay on HOP-62 it was 25.8 µM (inactive); with COLO 205, 70 µM (inactive). Further, the GI50 in the assay on UO-31 is 34.6 µM (inactive); in the assay with SW-620, > 100 µM (inactive); in the assay with LOX IMVI it was 53.1 µM (inactive); with SF-539, 17.8 µM (inactive); with NCI-H522, 41.9 µM (inactive); in the assay with NCI-H226, 28.1 µM (inactive). The GI50 in the assay on OVCAR-8 was 36.8 µM (inactive); with RPMI-8226, 33.4 µM (inactive); with SK-MEL-2, 55.5 µM (inactive).

For the compound `O=C(CSc1nnc(Cc2ccccc2)o1)Nc1ccccc1Cl`, the GI50 with HCC 2998, in the assay on ACHN, in the assay with HL-60, in the assay on NCI-H23, with HOP-62 and with COLO 205 was > 100 µM (inactive) throughout. The GI50 with UO-31, in the assay with SW-620, with LOX IMVI, in the assay on SF-539, in the assay on NCI-H522 and with NCI-H226 was > 100 µM (inactive) throughout. In addition, the GI50 in the assay on OVCAR-8, with RPMI-8226 and in the assay on SK-MEL-2 was > 100 µM (inactive) throughout.

As to `NC(=S)NNC(=O)/C(=C/c1ccc(/C=C(\NC(=O)c2ccccc2)C(=O)NNC(N)=S)cc1)NC(=O)c1ccccc1`, the GI50 in the assay on HCC 2998 is > 100 µM (inactive); in the assay with ACHN, > 100 µM (inactive); in the assay with HL-60 it was 15.6 µM (inactive); in the assay on NCI-H23, > 100 µM (inactive); in the assay with HOP-62 it was > 100 µM (inactive); in the assay on COLO 205 it was > 100 µM (inactive). The GI50 was > 100 µM (inactive) with UO-31; > 81.8 µM (inactive) in the assay on SW-620; 34.1 µM (inactive) in the assay on LOX IMVI; > 100 µM (inactive) in the assay on SF-539; 25.4 µM (inactive) in the assay with NCI-H522; > 100 µM (inactive) with NCI-H226. Moreover, the GI50 in the assay on OVCAR-8 was 64 µM (inactive); in the assay on RPMI-8226, 32.1 µM (inactive); in the assay with SK-MEL-2 it was > 100 µM (inactive).

With `CCOC(=O)c1c(-c2ccccc2)nc2ccccc2c1O`, the GI50 with HCC 2998, in the assay on ACHN, in the assay with HL-60, with NCI-H23, in the assay with MCF7 and in the assay with HOP-62 was > 100 µM (inactive) in each case. In addition, the GI50 with COLO 205, in the assay with UO-31, in the assay with SW-620, in the assay on T47D, in the assay on OVCAR-8 and with RPMI-8226 was > 100 µM (inactive) each time. Also, the GI50 with NCI/ADR-RES is > 100 µM (inactive).

Take `O=C(Nc1nc2ccccc2n1Cc1ccc(Cl)cc1)NC12CC3CC(CC(C3)C1)C2`: the GI50 with HCC 2998 is > 100 µM (inactive); in the assay on ACHN, 35.7 µM (inactive); with HL-60, > 100 µM (inactive); in the assay on NCI-H23, 16.4 µM (inactive); in the assay on HOP-62, 17.1 µM (inactive); with COLO 205 it was 36.2 µM (inactive). For the same compound, the GI50 in the assay with UO-31 is 48 µM (inactive); with SW-620, 65.8 µM (inactive); in the assay on LOX IMVI it was 34.1 µM (inactive); with SF-539, 24.3 µM (inactive); in the assay on NCI-H522, 16.1 µM (inactive); with NCI-H226, 24 µM (inactive). Moreover, the GI50 was 48.9 µM (inactive) in the assay on RPMI-8226 and 26.9 µM (inactive) in the assay with SK-MEL-2.

As for `CC(C)CCC[C@@H](C)C1CCC2[C@@H]3CC=C4C[C@@H](C(=O)NCCN(C)C)CC[C@]4(C)C3CC[C@@]21C` (stereo partly drawn), the GI50 is 23.5 µM (inactive) with HCC 2998; 35.8 µM (inactive) in the assay with ACHN; 45.8 µM (inactive) with HL-60; 18.3 µM (inactive) with NCI-H23; 18.9 µM (inactive) with HOP-62; 19.5 µM (inactive) in the assay with COLO 205. Moreover, the GI50 in the assay on UO-31 is 23.1 µM (inactive); in the assay with SW-620, 30 µM (inactive); in the assay with LOX IMVI it was 51.4 µM (inactive); with SF-539, 17.1 µM (inactive); with NCI-H522, 41 µM (inactive); in the assay on NCI-H226, 19.9 µM (inactive). In addition, the GI50 was 33.1 µM (inactive) in the assay with OVCAR-8, 19.8 µM (inactive) with RPMI-8226 and 11.5 µM (inactive) with SK-MEL-2.

With `CCCC(OCC)(OCC)OCC`, the GI50 with HCC 2998, in the assay with ACHN, in the assay on HL-60, in the assay on NCI-H23, with HOP-62 and in the assay with COLO 205 was > 100 µM (inactive) in each case. The GI50 is > 100 µM (inactive) with UO-31; 48.8 µM (inactive) with LOX IMVI; > 100 µM (inactive) with SF-539; > 100 µM (inactive) with NCI-H522; > 100 µM (inactive) in the assay on NCI-H226; > 100 µM (inactive) with OVCAR-8. Besides, the GI50 in the assay on RPMI-8226 and in the assay on SK-MEL-2 was > 100 µM (inactive) throughout.

On to `CC1=Nc2c(ccc3c2C(=O)c2ccccc2C3=O)NC(c2cccc3c2CCC3)C1` (stereo not drawn), for which the GI50 in the assay with HCC 2998 is > 100 µM (inactive); in the assay with ACHN, 25.3 µM (inactive); in the assay on HL-60 it was 1.58 µM (inactive); in the assay on NCI-H23, > 100 µM (inactive); in the assay with HOP-62, > 73.8 µM (inactive); with COLO 205, > 100 µM (inactive). The GI50 was 4.72 µM (inactive) in the assay with UO-31; > 100 µM (inactive) with SW-620; 24.2 µM (inactive) with LOX IMVI; > 100 µM (inactive) in the assay on SF-539; > 23.1 µM (inactive) in the assay on NCI-H522; > 66.2 µM (inactive) in the assay on NCI-H226. Also, the GI50 in the assay with OVCAR-8 is > 100 µM (inactive); in the assay with RPMI-8226, > 100 µM (inactive); with SK-MEL-2 it was > 80.9 µM (inactive).

Take `C=CCOc1cc2c(cc1C(C)c1ccc(OC)cc1)OCO2` (stereo not drawn): the GI50 in the assay with MDA-MB-435 is 0.251 µM (active); in the assay on HCC 2998 it was 0.887 µM (active); in the assay on ACHN it was 0.612 µM (active); with HL-60, 0.196 µM (active); in the assay with NCI-H23 it was 0.807 µM (active); in the assay on MCF7 it was 0.453 µM (active). The GI50 in the assay on HOP-62 is 0.495 µM (active); in the assay on COLO 205, 0.471 µM (active); in the assay with UO-31 it was 0.583 µM (active); in the assay with SW-620, 0.375 µM (active); with LOX IMVI, 0.598 µM (active); in the assay on SF-539, 0.333 µM (active). In addition, the GI50 with NCI-H522 was 0.205 µM (active); in the assay on NCI-H226, 0.813 µM (active); in the assay with OVCAR-8, 0.624 µM (active); in the assay on RPMI-8226, 0.78 µM (active); with SK-MEL-2, 16.6 µM (inactive).

`C[C@]12C=CC(=O)C=C1CC[C@H]1[C@@H]3C[C@@H](O)[C@](O)(C(=O)CO)[C@@]3(C)C[C@H](O)[C@@]12F` [TRIAMCINOLONE]: the GI50 in the assay on HCC 2998, with ACHN, in the assay with HL-60, in the assay on NCI-H23, in the assay on HOP-62 and with COLO 205 was > 100 µM (inactive) in each case. In addition, the GI50 in the assay with UO-31, in the assay with SW-620, in the assay with LOX IMVI, in the assay on SF-539, in the assay on NCI-H522 and with NCI-H226 was > 100 µM (inactive) throughout. The GI50 is > 100 µM (inactive) in the assay on OVCAR-8, 11 µM (inactive) with RPMI-8226 and > 100 µM (inactive) in the assay on SK-MEL-2.

The record behind these values is ChEMBL document CHEMBL1201862, “PubChem BioAssay data set” (2004).
